Measurements from patent US12673954B2 (BRISTOL-MYERS SQUIBB COMPANY, priority 2021, dated 2026).
Where two headings read alike, the source gives them in different places.

Columns and labels:
[1] = system: IRF pathway, THP1-Dual™ cells; assay: STING reporter assay in THP1-Dual cells, IRF pathway (Lucia luciferase, QUANTI-Luc); type: cell-based, human; conditions: THP1-Dual cells, 10% human plasma, 20 hours, Lucia luciferase, 100% activation = 100 μM cGAMP, read-out: IRF (EC50 μM)
From the text: (§1) THP1-Dual™ cells were derived from the human THP-1 monocyte cell line by stable integration of two inducible reporter constructs. To this end, THP1-Dual™ cells allow the simultaneous study of the NF-κB pathway, by monitoring the activity of SEAP, and the IRF pathway by assessing the activity of a secreted luciferase (Lucia). Both reporter proteins are readily measurable in the cell culture supernatant when using QUANTI-Blue™, a SEAP detection reagent, and QUANTI-Luc™, a luciferase detection reagent.
(§2) THP1-Dual™ cells induce the activation of NF-κB in response to STING agonists. They also trigger the IRF pathway upon stimulation with STING agonists, such as cGAMP. Here, the THP-1-Dual cells were used to assess STING specific binders for function on the cellular level.
(§3) Serial dilutions of compounds in DMSO were added to low volume 384 well plates at 100 nl/well using an ECHO acoustic dispenser (Labcyte, model 550) to achieve final starting concentration of 100 μM in cell suspension. […] One column of the plate was reserved for treatment with cGAMP at 100 μM for 100% activation calculation and one column for no treatment (DMSO only) for baseline activation. Plates were then incubated in 37° C. incubator at 5% CO2 for 20 hours.
(§4) Plates were read on the Envision (Perkin Elmer) at 620 nm wavelength (OD620). In the luciferase assay, 5 μl of Quantiluc (Invivogen, Rep-qlc2) is added to white 384 well plates seeded with THP1 cells and read at 5 minutes on the Envision (Perkin Elmer) using a luminescence protocol (RLU). 100% activation was determined by value (RLU) of THP-1 Dual STING cells stimulated with 100 μM cGAMP (Invivogen, cat #TLRL-NACGA23-5).

[2] = system: NF-κB pathway, THP1-Dual™ cells; assay: STING reporter assay in THP1-Dual cells, NF-κB pathway (SEAP, QUANTI-Blue); type: cell-based, human; conditions: THP1-Dual cells, 10% human plasma, 20 hours, SEAP, 100% activation = 100 μM cGAMP, read-out: NFkB (EC50 μM)
From the text: as §1, §2, §3, §4

EC50 ([1]; Homo sapiens, THP1-Dual, 20 h) [µM] | EC50 ([2]; Homo sapiens, THP1-Dual, 20 h) [µM] | EC50 [1] [µM] | EC50 [2] [µM] | Structure (SMILES)
79 | > 100 | – | – | O=C(NCc1cc2cc(Cl)cc(-c3nnn[nH]3)c2o1)c1cncc2cccnc12 [EXAMPLE 410, N-((5-Chloro-7-(1H-tetrazol-5-yl)benzofuran-2-yl)methyl)-1,6-naphthyridine-8-carboxamide]
13 | 16 | – | – | O=C(OCC(F)(F)F)c1cc(Cl)cc2cc(CN3CCc4ccncc4C3=O)oc12 [EXAMPLE 370, 2,2,2-Trifluoroethyl 5-chloro-2-((1-oxo-3,4-dihydro-2,7-naphthyridin-2(1H)-yl)methyl)benzofuran-7-carboxylate]
2.1 | 1.5 | – | – | COC(=O)c1cc(C)cc2cc(C(C)NC(=O)c3cnn4cccnc34)oc12 (single isomer, unassigned) [Example 97, Methyl-5-methyl-2-(1-(pyrazolo[1,5-a]pyrimidine-3-carboxamido)ethyl)benzofuran-7-carboxylate]
3.4 | 3.7 | – | – | COC(=O)c1cc(Cl)cc2cc(Cn3ccc4ccncc4c3=O)oc12 [Example 78, Methyl 5-chloro-2-((1-oxo-2,7-naphthyridin-2(1H)-yl)methyl)benzofuran-7-carboxylate]
4 | 4 | – | – | O=C(Cc1cc(F)cc2cc(CNC(=O)c3cnn4cccnc34)oc12)OCC(F)(F)F [EXAMPLE 366, 2,2,2-Trifluoroethyl 2-(5-fluoro-2-((pyrazolo[1,5-a]pyrimidine-3-carboxamido)methyl)benzofuran-7-yl)acetate]
3.3 | 3.5 | – | – | CCOc1ncncc1C(=O)NCc1cc2cc(Cl)cc(C(=O)OC)c2o1 [Example 74, Methyl 5-chloro-2-((4-ethoxypyrimidine-5-carboxamido)methyl)benzofuran-7-carboxylate]
2.8 | 3.4 | – | – | Cc1ccc(C(=O)OCC(F)(F)F)c2oc(Cn3cnc4ccncc4c3=O)cc12 [EXAMPLE 360]
3.7 | 4.6 | – | – | O=C(OCC(F)(F)F)c1cc(Cl)cc2cc(Cn3ccc4ccncc4c3=O)oc12 [EXAMPLE 372, 2,2,2-Trifluoroethyl 5-chloro-2-((1-oxo-2,7-naphthyridin-2(1H)-yl)methyl)benzofuran-7-carboxylate]
13 | 12 | – | – | CSC(=O)c1cccc2cc(CNC(=O)c3cnccn3)oc12 [EXAMPLE 381, S-Methyl 2-((pyrazine-2-carboxamido)methyl)benzofuran-7-carbothioate]
– | – | 1.3 | 1.5 | CC(NC(=O)c1cnn2cccnc12)c1cc2cc(F)cc(C(=O)OCC(F)(F)F)c2o1 (single isomer, unassigned) [EXAMPLE 328, 2,2,2-Trifluoroethyl 5-fluoro-2-(1-(pyrazolo[1,5-a]pyrimidine-3-carboxamido)ethyl)benzofuran-7-carboxylate]
10 | 18 | – | – | [2H]C([2H])([2H])OC(=O)c1cccc2cc(CN3CCc4ccncc4C3=O)oc12 [EXAMPLE 353, Methyl-D3 2-((1-oxo-3,4-dihydro-2,7-naphthyridin-2(1H)-yl)methyl)benzofuran-7-carboxylate]

Second part, the compound before the results:

Structure (SMILES) | EC50 ([1]; Homo sapiens, THP1-Dual, 20 h) [µM] | EC50 ([2]; Homo sapiens, THP1-Dual, 20 h) [µM] | EC50 [1] [µM] | EC50 [2] [µM]
CC(NC(=O)c1cnn2cccnc12)c1cc2cc(F)cc(C(=O)O[C@H](C)C(F)(F)F)c2o1 (stereo partly drawn) [EXAMPLE 326, (R)-1,1,1-Trifluoropropan-2-yl 5-fluoro-2-(1-(pyrazolo[1,5-a]pyrimidine-3-carboxamido)ethyl)benzofuran-7-carboxylate] | – | – | 74 | > 100
O=C(O)c1cc(F)cc2c(Cl)c(CNC(=O)c3cnn4cccnc34)oc12 [EXAMPLE 172, 3-chloro-5-fluoro-2-((pyrazolo[1,5-a]pyrimidine-3-carboxamido)methyl)benzofuran-7-carboxylic acid] | 62 | 74 | – | –
COC(=O)c1cc(F)cc2cc(CNC(=O)c3cnc4cccnn34)oc12 [EXAMPLE 41, Methyl 5-fluoro-2-((imidazo[1,2-b]pyridazine-3-carboxamido)methyl)benzofuran-7-carboxylate] | > 33 | 1.3 | – | –
O=C(NCc1cc2cc(F)cc(C(=O)OCC(F)(F)F)c2o1)c1cnccn1 [EXAMPLE 229, 2,2,2-Trifluoroethyl 5-fluoro-2-((pyrazine-2-carboxamido)methyl)benzofuran-7-carboxylate] | 4.2 | 4.2 | – | –
COC(=O)c1cc(C)cc2c(Cl)c(CNC(=O)c3cnn4cccnc34)oc12 [EXAMPLE 117, Methyl 3-chloro-5-methyl-2-((pyrazolo[1,5-a]pyrimidine-3-carboxamido)methyl)benzofuran-7-carboxylate] | 0.2 | 0.28 | – | –
CC(OC(=O)c1ccc(F)c2cc(CNC(=O)c3cnn4cccnc34)oc12)C(F)(F)F (single isomer, unassigned) [EXAMPLE 310, 1,1,1-Trifluoropropan-2-yl 4-fluoro-2-((pyrazolo[1,5-a]pyrimidine-3-carboxamido)methyl)benzofuran-7-carboxylate] | – | – | 37 | 56
COC(=O)c1c(F)ccc2cc(CNC(=O)c3cnn4cccnc34)oc12 [EXAMPLE 107, Methyl 6-fluoro-2-((pyrazolo[1,5-a]pyrimidine-3-carboxamido)methyl)benzofuran-7-carboxylate] | 1.4 | 2 | – | –
COC(=O)c1cc(F)cc2c(Cl)c(CNC(=O)c3cnn4cccnc34)oc12 [EXAMPLE 110, Methyl 3-chloro-5-fluoro-2-((pyrazolo[1,5-a]pyrimidine-3-carboxamido)methyl)benzofuran-7-carboxylate] | 0.22 | 0.27 | – | –
Cc1cc(CC(=O)OCC(F)(F)F)c2oc(CNC(=O)c3cnn4cccnc34)cc2c1 [EXAMPLE 278, 2,2,2-Trifluoroethyl 2-(5-methyl-2-((pyrazolo[1,5-a]pyrimidine-3-carboxamido)methyl)benzofuran-7-yl)acetate] | 6.6 | 5.5 | – | –
O=C(OCCN1CCOCC1)c1cc(Cl)cc2cc(CNC(=O)c3cnn4cccnc34)oc12 [EXAMPLE 255, 2-Morpholinoethyl 5-chloro-2-((pyrazolo[1,5-a]pyrimidine-3-carboxamido)methyl)benzofuran-7-carboxylate] | 13 | 19 | – | –
O=C(NCc1cc2cc(Cl)cc(C(=O)OCC(F)(F)F)c2o1)c1cncc2[nH]cnc12 [EXAMPLE 264, 2,2,2-Trifluoroethyl 2-((3H-imidazo[4,5-c]pyridine-7-carboxamido)methyl)-5-chlorobenzofuran-7-carboxylate] | 1.7 | 1.7 | – | –
COC(=O)c1c(O)ccc2cc(CNC(=O)c3cnn4cccnc34)oc12 [EXAMPLE 109, Methyl 6-hydroxy-2-((pyrazolo[1,5-a]pyrimidine-3-carboxamido)methyl)benzofuran-7-carboxylate] | 0.9 | 1.1 | – | –
COC(=O)c1cccc2cc(CN3Cc4c(F)cncc4C3=O)oc12 [EXAMPLE 3, Methyl 2-((7-fluoro-3-oxo-1,3-dihydro-2H-pyrrolo[3,4-c]pyridin-2-yl)methyl)benzofuran-7-carboxylate] | 51 | 92 | – | –
Cc1ccc2cc(CNC(=O)c3cnn4cccnc34)oc2c1C(=O)OCC(F)(F)F [EXAMPLE 287, 2,2,2-Trifluoroethyl 6-methyl-2-((pyrazolo[1,5-a]pyrimidine-3-carboxamido)methyl)benzofuran-7-carboxylate] | 12 | 18 | – | –
Cc1cc(C(=O)O)c2oc(CNC(=O)c3cncc4cccnc34)c(Cl)c2c1 [EXAMPLE 178, 2-((1,6-naphthyridine-8-carboxamido)methyl)-3-chloro-5-methylbenzofuran-7-carboxylic acid] | 42 | 50 | – | –
Cc1cc(C(=O)O[C@@H](C)C(F)(F)F)c2oc(CNC(=O)c3cnn4cccnc34)cc2c1 [EXAMPLE 272, (S)-1,1,1-Trifluoropropan-2-yl 5-methyl-2-((pyrazolo[1,5-a]pyrimidine-3-carboxamido)methyl)-benzofuran-7-carboxylate] | 2.2 | 2.2 | – | –
O=C(Cc1cc(Br)cc2cc(CNC(=O)c3cnn4cccnc34)oc12)OCC(F)(F)F [EXAMPLE 270, 2,2,2-Trifluoroethyl 2-(5-bromo-2-((pyrazolo[1,5-a]pyrimidine-3-carboxamido)methyl)benzofuran-7-yl)acetate] | 30 | 36 | – | –
